According to publication PMC12387469, “Dolabellane Diterpenoids from Soft Coral Clavularia viridis with Anti-Inflammatory Activities” (Marine Drugs, 2025):

Assays:
[1] = tested on: NO production in LPS-stimulated BV2 cells; experiment: Inhibition of NO production in LPS-stimulated BV2 cells (Griess reagent); details: Mus musculus; for inhibition at 20 µM: BV-2, read-out: NO Inhibitory Activity % Inhibition (20 μM); for IC50: BV-2, read-out: NO Inhibitory Activity IC50
Description: To evaluate the anti-inflammatory effect, all compounds were screened on an LPS-stimulated BV2 model to determine the inhibitory effects against NO production [21].
The BV-2 mouse microglia cell line was purchased from the Cell Bank of Shanghai Institute of Biochemistry and Cell Biology, Chinese Academy of Sciences (Shanghai, China), and was cultured in Dulbecco’s modified Eagle medium (DMEM, Gibco Invitrogen Corp., Suzhou, China) supplemented with 10% fetal bovine serum (FBS), 100 units/mL penicillin, and 100 mg/mL streptomycin. The cells were placed at 37 °C in a humidified incubator containing 5% CO2.
The inhibitory activity of the isolated compounds toward NO production was determined using the Griess reagent system (Beyotime). Cells were cultured in each well of 96-well plates at a density of 5 × 10^4 cells/well with 100 mL of DMEM for 24 h. Test samples dissolved in DMSO and diluted with DMEM were added, as well as 2 mg/mL LPS as a stimulus. The final drug concentration was 50 μM with 1% DMSO. Wells treated with only LPS served as model controls, and wells treated with neither LPS nor test samples served as blank controls (all contained 1% DMSO). After 24 h incubation, half of the medium (50 mL) in each well was harvested.

[2] = Cytotoxic effect in BV-2 cells, Cell Counting Kit-8 (CCK-8) assay; assay type: cell-based; details: mouse, BV-2 microglia cells
Description: Cells were pretreated with or without compounds for 2 h and then induced with 40 μg/mL LPS for another 48 h. […] The absorbance was then measured at a wavelength of 450 nm with a microplate reader (Thermo Fisher Scientific, Marietta, OH, USA). The cell proliferation was expressed as a ratio of control.

IC50 [1] [µM]	SMILES	inhibition at 20 µM [1] [%]	CC50 at 50 h [2] [µM]
	CC1=C2C(O)CC3(C)CCC(C)CC(=O)CC(C)CC(OC1=O)C23 (stereo not shown) [Compound 1, Clavirolide W]	15.1 ± 2.4	> 50
	CC1=C2CCC3(C)CCC(C)CC(=O)CC(C)CC(OC1=O)C23OO (stereo not shown) [Compound 2, Clavirolide X]	36.4 ± 1.7	> 50
27 ± 0.6	CC1=CC(=O)C=C(C)CC2OC(=O)C(C)=C3CCC(C)(CC1)C32 (stereo not shown) [Compound 3, Clavirolide Y]	42.7 ± 3.5	> 50
	CC1=CCC2(C)CCC3=C(C)C(=O)OC(CC(C)CC(=O)C1)C32OO (stereo not shown) [Compound 4, Clavirolide Z]	29 ± 2.8	> 50
	CC1=CC(OO)C2(C)CCC3=C(C)C(=O)OC(CC(C)CC(=O)C1)C32 (stereo not shown) [Compound 5, clavularol A]	26.8 ± 3.6	> 50
	CC1=CC(=O)CC(C)=CC(O)C2C(C(C)(C)OO)=CCC2(C)CC1 (stereo not shown) [Compound 6, clavularol B]	14.6 ± 1.2	> 50
	C=C1CCC=C(C)CC(O)C2C(C)(CC1)CC1OC12C(C)(C)O (stereo not shown) [Compound 7, clavularol C]	24 ± 3.8	> 50
	C=C1CC[C@@H]2O[C@@]2(C)C[C@@H](O)C2=C(C(C)(C)O)CC[C@@]2(C)CC1 [Compound 8, Clavularol D]	35.9 ± 4.2	> 50
	C=C1CCC2OC2(C)CC(O)C2=C(C(C)(C)O)CCC2(C)CC1 (stereo not shown) [Compound 9, Clavularol E]	12.6 ± 2.6	> 50
18.3 ± 0.6	C=C1CC[C@@H]2O[C@@]2(C)C[C@@H](O)[C@@H]2C(C(C)(C)O)=CC[C@@]2(C)CC1 [Compound 10, clavularol F]	68.9 ± 3.6	> 50
	C=C1CC[C@H]2O[C@]2(C)C[C@@H](O)[C@H]2[C@](C)(CC1)CC[C@@]2(O)C(=C)C [Compound 11, Clavularol G]	18.4 ± 2.8	> 50
20.3 ± 0.3	C=C1CCC(O)C(C)=CC2OC(C)(C)C3=C2C(C)(CC1)CC3 (stereo not shown) [Compound 12, Clavularol H]	48.8 ± 4.2	> 50
20.3 ± 0.3	C=C1CCC=C(C)CC(O)C2C(C(C)(C)O)=CCC2(C)CC1 (stereo not shown) [Compound 13, clavularinlide E]	45.6 ± 3.5	> 50
	C=C1CCC=C(C)CC(O)C2=C(C(C)(C)O)CCC2(C)CC1 (stereo not shown) [Compound 14, clavudiol A]	25.4 ± 2.4	> 50
23.4 ± 0.4	CC1=C2CC[C@@]3(C)CC[C@H](C)CC(=O)C[C@@H](C)C[C@@H](OC1=O)[C@H]23 [Compound 15, clavirolide C]	48.3 ± 3.6	> 50

SMILES	IC50 [1] [µM]	inhibition at 20 µM [1] [%]	CC50 at 50 h [2] [µM]
[H]/N=C(/NC)NCCC[C@H](N)C(=O)O [L-NMMA, L-NG-monomethyl arginine, reference compound]	17.8 ± 0.6	76.7 ± 4.2	
